Results from patent US20040006236A1, “Diaminopropionic acid derivatives” (priority 1999, published 2004).

Columns and labels:
[1] = test system: T lymphocyte proliferation (C57BI/6 spleen cells with irradiated BALB/c spleen cells); assay: Mixed lymphocyte reaction (MLR), one-way; format: cell-based, mice; details: Mus musculus, T-lymphocyte; read-out: MLR IC50
How it was run: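 One-way murine MLR: C57BI/6 responder splenocytes proliferate against irradiated BALB/c stimulators while exposed to serially diluted antagonists in supplemented RPMI1640 for 3 days. Proliferation read as [3H]-thymidine uptake over a final 6 h pulse (0.5 μCi/well), scintillation counted.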

[2] = target: T1, LFA-1 binding to immobilized ICAM-1 (Homo sapiens, UniProt P05107+P20701); assay: LFA-1/ICAM-1 protein-protein assay (solid-phase ELISA); details: read-out: LFA-1/ICAM-1 Protein-Protein Assay IC50
T1 construct: made in house; host or cells: transfected 293 cells (LFA-1)
T1 sequence (P20701 26-1170): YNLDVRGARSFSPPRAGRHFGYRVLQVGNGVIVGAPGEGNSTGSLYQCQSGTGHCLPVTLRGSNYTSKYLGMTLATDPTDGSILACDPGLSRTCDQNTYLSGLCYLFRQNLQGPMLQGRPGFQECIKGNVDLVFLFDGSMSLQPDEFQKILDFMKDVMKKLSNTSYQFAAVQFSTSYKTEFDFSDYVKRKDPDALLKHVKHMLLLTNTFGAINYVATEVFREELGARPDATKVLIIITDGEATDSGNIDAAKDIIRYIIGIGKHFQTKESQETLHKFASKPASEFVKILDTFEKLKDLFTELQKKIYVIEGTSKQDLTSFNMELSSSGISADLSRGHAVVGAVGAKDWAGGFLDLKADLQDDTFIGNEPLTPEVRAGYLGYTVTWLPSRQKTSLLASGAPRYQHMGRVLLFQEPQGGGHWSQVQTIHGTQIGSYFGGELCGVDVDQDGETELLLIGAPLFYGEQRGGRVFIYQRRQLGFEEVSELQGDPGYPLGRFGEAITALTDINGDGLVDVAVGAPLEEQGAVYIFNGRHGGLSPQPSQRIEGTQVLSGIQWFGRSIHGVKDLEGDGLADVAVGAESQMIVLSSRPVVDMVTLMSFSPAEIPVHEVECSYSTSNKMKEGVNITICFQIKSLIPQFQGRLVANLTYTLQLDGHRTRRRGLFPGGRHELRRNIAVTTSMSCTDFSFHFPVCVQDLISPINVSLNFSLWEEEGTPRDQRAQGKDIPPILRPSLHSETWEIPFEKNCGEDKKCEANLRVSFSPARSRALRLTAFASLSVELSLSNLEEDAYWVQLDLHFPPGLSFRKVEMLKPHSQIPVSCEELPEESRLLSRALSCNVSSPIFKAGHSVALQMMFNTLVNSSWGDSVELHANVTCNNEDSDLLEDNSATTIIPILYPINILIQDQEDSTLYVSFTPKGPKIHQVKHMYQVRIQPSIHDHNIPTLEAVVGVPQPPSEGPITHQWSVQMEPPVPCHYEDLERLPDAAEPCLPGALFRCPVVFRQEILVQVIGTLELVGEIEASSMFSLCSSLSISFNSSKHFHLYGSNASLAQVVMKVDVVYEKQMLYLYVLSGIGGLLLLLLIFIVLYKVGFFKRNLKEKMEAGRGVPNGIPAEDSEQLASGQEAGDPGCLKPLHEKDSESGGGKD
T1 sequence (P05107 23-769): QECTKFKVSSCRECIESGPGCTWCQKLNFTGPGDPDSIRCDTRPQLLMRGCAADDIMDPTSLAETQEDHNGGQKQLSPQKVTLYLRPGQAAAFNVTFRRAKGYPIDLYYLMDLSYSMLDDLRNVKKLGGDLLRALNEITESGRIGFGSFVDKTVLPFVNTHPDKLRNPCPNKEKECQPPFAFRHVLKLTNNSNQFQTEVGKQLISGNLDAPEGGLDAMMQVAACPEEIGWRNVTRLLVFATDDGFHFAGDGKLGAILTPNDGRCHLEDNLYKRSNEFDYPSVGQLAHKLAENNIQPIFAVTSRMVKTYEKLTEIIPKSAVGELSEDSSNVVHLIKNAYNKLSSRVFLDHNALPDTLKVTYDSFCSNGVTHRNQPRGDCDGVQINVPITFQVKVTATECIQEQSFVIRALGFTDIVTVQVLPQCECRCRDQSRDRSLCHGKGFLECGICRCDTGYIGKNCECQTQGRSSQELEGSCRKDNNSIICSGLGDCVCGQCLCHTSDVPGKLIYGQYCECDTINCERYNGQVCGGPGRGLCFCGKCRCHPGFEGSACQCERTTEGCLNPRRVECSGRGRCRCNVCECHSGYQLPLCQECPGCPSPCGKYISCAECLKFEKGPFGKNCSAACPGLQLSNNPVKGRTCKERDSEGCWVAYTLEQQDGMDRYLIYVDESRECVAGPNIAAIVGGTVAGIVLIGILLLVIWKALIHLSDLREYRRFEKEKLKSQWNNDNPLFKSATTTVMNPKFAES
How it was run: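 Human 5dICAM-Ig (ICAM-1 extracellular domain–IgG Fc) coated on plates; membrane-bound LFA-1 from transfected 293 cells (280 ng/mL) added with compound in Mn2+-containing HEPES buffer pH 7.2, 2 h at 37° C. Bound LFA-1 detected via anti-β2 antibody and HRP/TMB at 450 nm; IC50s determined.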

- IC50 [2]: 2.1 nM
Compound: O=C(CC1CCCC1)NC[C@H](NC(=O)c1ccc(C(=O)NCc2cccc(O)c2)cc1Cl)C(=O)O [Example 77]
- IC50 [1]: 700 nM
